A short description of this test: Round table sweetness evaluation by test panelists (sucrose equivalent value, SEV). The test is classed as in vivo. The note with it: equal sweet 10 SEV concentrations in neutral pH water, room temperature; references 4%-14% sucrose. As to the method:
Round table evaluations were performed with test panelists. Equal sweet 10 SEV concentrations in neutral pH water were made for allulose, AceK and fructose, as well as a composition comprising allulose, AceK and fructose. The components of the test compositions are described in the below tables. The mixed compositions were calculated using the Beidler mixture equation for the sweeteners. The Beidler mixture equation for sweeteners is as follows: […]
The concentration of each component in the mixture in ppm is divided by SEV (c/R) and is plotted against concentration, c. The slope of the linear regression is […]. The y-intercept of the linear regression multiplied by Rmax is the half-maximal sweetness concentration, 1/K. Rmax and 1/K are the two parameters used in the Beidler equation
The equal-molar mixture was tested against reference samples for the panelists to determine SEV values. […] The test samples were served in 2 ounce soufflé cups (approximately 60 ml) coded with 3-digit codes at room temperature. A two minute wait period between samples was enforced. Water and unsalted crackers was available for the panelists to clear their palates before and during testing. EyeQuestion, software distributed by Logic8 BV of Elst, The Netherlands, was used for ballot development and recording of results. Results were collected in EyeQuestion for calculating approximate SEV level of each test sample.
The test products analyzed in this experiment are described below in Table 1.
In the case of `O=C(CO)[C@@H](O)[C@H](O)[C@H](O)CO` [Fructose, fructose], the “Mean sucrose equivalent value (SEV), Mean 1” value came to 10.14 and the “Median sucrose equivalent value (SEV), Median 1” value is on record as 10.
The like results for `O=C(CO)C(O)C(O)C(O)CO` (stereo not drawn) [Allulose, allulose] were, in that order, 10.14 and 10.
As to `CC1=CC(=O)[N-]S(=O)(=O)O1.[K+]` [AceK, potassium salt of 6-methyl-1,2,3-oxathiazine-4(3H)-one 2,2-dioxide], the “Mean sucrose equivalent value (SEV), Mean 1” value was determined as 9.286 and the “Median sucrose equivalent value (SEV), Median 1” value is listed as 8.

The values are drawn from patent US9259022B2, “Sweetener” (Tate & Lyle Ingredients Americas LLC, priority 2013, dated 2016).
